Tested on: 276233-004-R-J1-PDC complex spheroid viability
Experiment: Anticancer human tumor 276233-004-R-J1-PDC patient-derived colon adenocarcinoma cell line growth inhibition [GQUAD]
Settings: for IC50: curve of first compound; for viability, T/C: stronger effect = lower value
In short: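 Tumor cells were grown as complex spheroids with HUVEC endothelial cells and mesenchymal stem cells as stroma. G-quadruplex stabilizers were combined with targeted agents over half-log dilutions from near the clinical Cmax, or from 10 microM.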

[1] = second compound 0.0316 µM, first compound 0.0316 µM
[2] = second compound 0.0316 µM, first compound 0.1 µM
[3] = second compound 0.0316 µM, first compound 0.316 µM
[4] = second compound 0.0316 µM, first compound 1 µM
[5] = second compound 0.0316 µM, first compound 3.16 µM
[6] = second compound 0.0316 µM, first compound 10 µM
[7] = second compound 0.1 µM, first compound 0.0316 µM
[8] = second compound 0.1 µM, first compound 0.1 µM
[9] = second compound 0.1 µM, first compound 0.316 µM
[10] = second compound 0.1 µM, first compound 1 µM
[11] = second compound 0.1 µM, first compound 3.16 µM
[12] = second compound 0.1 µM, first compound 10 µM
[13] = second compound 0.316 µM, first compound 0.0316 µM
[14] = second compound 0.316 µM, first compound 0.1 µM
[15] = second compound 0.316 µM, first compound 0.316 µM
[16] = second compound 0.316 µM, first compound 1 µM
[17] = second compound 0.316 µM, first compound 3.16 µM
[18] = second compound 0.316 µM, first compound 10 µM
[19] = second compound 1 µM, first compound 0.0316 µM
[20] = second compound 1 µM, first compound 0.1 µM
[21] = second compound 1 µM, first compound 0.316 µM
[22] = second compound 1 µM, first compound 1 µM
[23] = second compound 1 µM, first compound 3.16 µM
[24] = second compound 1 µM, first compound 10 µM
[25] = second compound 3.16 µM, first compound 0.0316 µM
[26] = second compound 3.16 µM, first compound 0.1 µM
[27] = second compound 3.16 µM, first compound 0.316 µM
[28] = second compound 3.16 µM, first compound 1 µM
[29] = second compound 3.16 µM, first compound 3.16 µM
[30] = second compound 3.16 µM, first compound 10 µM
[31] = second compound 10 µM, first compound 0.0316 µM
[32] = second compound 10 µM, first compound 0.1 µM
[33] = second compound 10 µM, first compound 0.316 µM
[34] = second compound 10 µM, first compound 1 µM
[35] = second compound 10 µM, first compound 3.16 µM
[36] = second compound 10 µM, first compound 10 µM
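Also: spheroids exposed to drugs for seven days.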
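For viability, T/C in this document: 100% = DMSO vehicle control viability.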

`CC(=O)O[C@H]1C(=O)[C@@]2(C)[C@H]([C@H](OC(=O)c3ccccc3)[C@]3(O)C[C@H](OC(=O)[C@H](O)[C@@H](NC(=O)c4ccccc4)c4ccccc4)C(C)=C1C3(C)C)[C@]1(OC(C)=O)CO[C@@H]1C[C@@H]2O` + CN(C)c1ccc(Nc2c3ccc(NC(=O)CCN4CCCC4)cc3nc3cc(NC(=O)CCN4CCCC4)ccc23)cc1 gave an IC50 (second compound 0.0316 µM) of over 10 µM, an IC50 (second compound 0.1 µM) of over 10 µM and an IC50 (second compound 0.316 µM) of over 10 µM. The IC50 (second compound 1 µM) was 4.25 µM, the IC50 (second compound 3.16 µM) was under 0.0316 µM and the IC50 (second compound 10 µM) was under 0.0316 µM. The viability, T/C [1] was 86.5%, the viability, T/C [2] was 98.3% and the viability, T/C [3] was 87.9%. The viability, T/C [4] was 85.2%, the viability, T/C [5] was 88% and the viability, T/C [6] was 80.6%. It also gave a viability, T/C [7] of 70.4%, a viability, T/C [8] of 82.2% and a viability, T/C [9] of 65.8%. The viability, T/C [10] was 79.7%, the viability, T/C [11] was 69.8% and the viability, T/C [12] was 69.8%. For the same compound, the viability, T/C [13] was 67.5%, the viability, T/C [14] was 65.5% and the viability, T/C [15] was 57.4%. For the same compound, the viability, T/C [16] was 54.1%, the viability, T/C [17] was 67.8% and the viability, T/C [18] was 54.9%. The viability, T/C [19] was 52.7%, the viability, T/C [20] was 52.6% and the viability, T/C [21] was 57%. It also gave a viability, T/C [22] of 55.9%, a viability, T/C [23] of 54.4% and a viability, T/C [24] of 41.7%. It also gave a viability, T/C [25] of 44.4%, a viability, T/C [26] of 41.9% and a viability, T/C [27] of 37.2%. For the same compound, the viability, T/C [28] was 49.5%, the viability, T/C [29] was 50% and the viability, T/C [30] was 49.7%. The viability, T/C [31] was 36.8%, the viability, T/C [32] was 44.1% and the viability, T/C [33] was 43.7%. The viability, T/C [34] was 44.3%, the viability, T/C [35] was 51.9% and the viability, T/C [36] was 51.7%.
`CC(C)n1c(=O)n(C)c2cnc3cc(F)c(-c4ccc(OCCCN5CCCCC5)nc4)cc3c21` + CN(C)c1ccc(Nc2c3ccc(NC(=O)CCN4CCCC4)cc3nc3cc(NC(=O)CCN4CCCC4)ccc23)cc1 showed an IC50 (second compound 0.0316 µM) of over 10 µM, an IC50 (second compound 0.1 µM) of over 10 µM and an IC50 (second compound 0.316 µM) of 8.48 µM. The IC50 (second compound 1 µM) was over 10 µM, the IC50 (second compound 3.16 µM) was over 10 µM and the IC50 (second compound 10 µM) was under 0.0316 µM. For the same compound, the viability, T/C [1] was 95.3%, the viability, T/C [2] was 103% and the viability, T/C [3] was 99.6%. It also gave a viability, T/C [4] of 92.9%, a viability, T/C [5] of 69.2% and a viability, T/C [6] of 53.1%. For the same compound, the viability, T/C [7] was 91.4%, the viability, T/C [8] was 99.2% and the viability, T/C [9] was 100%. It also gave a viability, T/C [10] of 89.2%, a viability, T/C [11] of 60.1% and a viability, T/C [12] of 55.5%. For the same compound, the viability, T/C [13] was 86.7%, the viability, T/C [14] was 84.3% and the viability, T/C [15] was 75.7%. The viability, T/C [16] was 86.1%, the viability, T/C [17] was 68.7% and the viability, T/C [18] was 46.9%. It also gave a viability, T/C [19] of 61.7%, a viability, T/C [20] of 57.4% and a viability, T/C [21] of 62.1%. It also gave a viability, T/C [22] of 72.7%, a viability, T/C [23] of 72.7% and a viability, T/C [24] of 64.8%. For the same compound, the viability, T/C [25] was 55.9%, the viability, T/C [26] was 53.6% and the viability, T/C [27] was 82.4%. For the same compound, the viability, T/C [28] was 90.1%, the viability, T/C [29] was 81.3% and the viability, T/C [30] was 36.6%. For the same compound, the viability, T/C [31] was 46.4%, the viability, T/C [32] was 54% and the viability, T/C [33] was 63.4%. For the same compound, the viability, T/C [34] was 83.1%, the viability, T/C [35] was 107% and the viability, T/C [36] was 26.4%.
Compound `CC1COCCN1c1cc(C2(O)CC3CCC(C2)O3)c2cnn(-c3ccn[nH]3)c2n1` (stereo unspecified) + Cc1cnc(CNC(=O)c2c(=O)c3ccc(N4CCCN(C)CC4)nc3n3c2sc2ccccc23)cn1 has an IC50 (second compound 0.0316 µM) of 3.1 µM, an IC50 (second compound 0.1 µM) of 3.56 µM and an IC50 (second compound 0.316 µM) of 1.47 µM. For the same compound, the IC50 (second compound 1 µM) was 1.02 µM, the IC50 (second compound 3.16 µM) was 0.642 µM and the IC50 (second compound 10 µM) was 0.271 µM. It also gave a viability, T/C [1] of 81%, a viability, T/C [2] of 61.9% and a viability, T/C [3] of 79.2%. The viability, T/C [4] was 50.7%, the viability, T/C [5] was 52.1% and the viability, T/C [6] was 40.3%. For the same compound, the viability, T/C [7] was 79.7%, the viability, T/C [8] was 80.7% and the viability, T/C [9] was 60.6%. The viability, T/C [10] was 63.5%, the viability, T/C [11] was 56.3% and the viability, T/C [12] was 35.8%. The viability, T/C [13] was 71.1%, the viability, T/C [14] was 85.3% and the viability, T/C [15] was 62.6%. For the same compound, the viability, T/C [16] was 50.6%, the viability, T/C [17] was 48.7% and the viability, T/C [18] was 32.9%. For the same compound, the viability, T/C [19] was 68.8%, the viability, T/C [20] was 75% and the viability, T/C [21] was 50.4%. For the same compound, the viability, T/C [22] was 50%, the viability, T/C [23] was 44.6% and the viability, T/C [24] was 24.9%. It also gave a viability, T/C [25] of 55.7%, a viability, T/C [26] of 59.7% and a viability, T/C [27] of 56.4%. It also gave a viability, T/C [28] of 44.8%, a viability, T/C [29] of 35.9% and a viability, T/C [30] of 24.6%. It also gave a viability, T/C [31] of 63.2%, a viability, T/C [32] of 60.1% and a viability, T/C [33] of 46.9%. For the same compound, the viability, T/C [34] was 41.7%, the viability, T/C [35] was 35.6% and the viability, T/C [36] was 20%.

— PubChem BioAssay AID2060496 (Molecular Pharmacology Branch, DTP, NCI, 2025)
